Results from patent US6887896B1, “7-[(7-Alkoxy)-chrom-3-en-6-yl]-heptatrienoic acid and 7-[(3-alkoxy)-5,6-dihydronaphthalen-2-yl]-heptatrienoic acid derivatives having serum glucose reducing activity” (Allergan, Inc., priority 2003, dated 2005).

Columns and labels:
RXRβ [1] = target: T1, RXRβ (UniProt P28704); test: holoreceptor transactivation assay, RXRβ; format: cell-based; conditions: for EC50: holoreceptor transactivation, read-out: RXR Trans. EC50 β; for RXR Trans. efficacy (number in parentheses) β: percentage compared to the standard compound
T1 sequence (P28704 1-520): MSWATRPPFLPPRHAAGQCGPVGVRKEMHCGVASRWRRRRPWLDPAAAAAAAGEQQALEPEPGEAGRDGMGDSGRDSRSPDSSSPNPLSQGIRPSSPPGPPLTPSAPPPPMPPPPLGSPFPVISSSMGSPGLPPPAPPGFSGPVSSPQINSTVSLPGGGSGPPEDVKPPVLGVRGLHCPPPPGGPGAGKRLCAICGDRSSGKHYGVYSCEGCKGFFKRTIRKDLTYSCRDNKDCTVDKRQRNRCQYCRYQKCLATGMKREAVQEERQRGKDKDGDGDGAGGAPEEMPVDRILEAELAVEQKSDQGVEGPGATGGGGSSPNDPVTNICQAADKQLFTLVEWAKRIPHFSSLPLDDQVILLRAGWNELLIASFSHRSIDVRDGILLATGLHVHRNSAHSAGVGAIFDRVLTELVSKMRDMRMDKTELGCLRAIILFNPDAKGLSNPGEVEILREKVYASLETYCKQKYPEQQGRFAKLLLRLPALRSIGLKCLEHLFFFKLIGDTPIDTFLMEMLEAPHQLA
Outline: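 Cells carrying either full-length RXR (holoreceptor) or chimeric RAR receptors were exposed to compound and reporter transactivation recorded. Potency was expressed as EC50 in nanomolar. Efficacy was expressed as percent of the maximal response of a reference cyclopropyl-tetramethyltetrahydronaphthalene penta-2,4-dienoic acid.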

RXRβ [2] = target: T1, RXRβ; test: ligand binding assay, RXRβ; conditions: Table 9 (Formula F); read-out: RXR β Kd
Outline: (§1)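 Binding of compounds to several retinoid receptor subtypes was measured. Results are given as Ki values in nanomolar concentration, derived per Cheng et al.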

RARα [3] = target: T2, RARα (Homo sapiens, UniProt P10276); test: chimeric receptor transactivation assay, RARα; format: cell-based; conditions: for EC50: chimeric receptor transactivation, read-out: RAR Trans. EC50 α; for Emax: percentage compared to the standard compound, read-out: RAR Trans. efficacy (number in parentheses) α
T2 sequence (P10276 183-417 limits assumed): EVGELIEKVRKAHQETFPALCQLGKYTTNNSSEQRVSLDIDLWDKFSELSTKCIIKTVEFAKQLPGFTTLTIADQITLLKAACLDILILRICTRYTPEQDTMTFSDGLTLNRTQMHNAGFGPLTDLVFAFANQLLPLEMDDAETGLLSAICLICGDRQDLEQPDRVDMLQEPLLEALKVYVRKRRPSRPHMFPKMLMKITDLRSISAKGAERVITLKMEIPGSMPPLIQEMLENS
Description: Specifically, one such assay is a chimeric receptor transactivation assay which tests for agonist-like activity in the R RAPE and RAR7 receptor subtypes, and which is based on work published by Feigner, P. L. and Holm, M (1989) Focus, 112 is described in detail in U.S. Pat. No. 5,455,265. The specification of U.S. Pat. No. 5,455,265 is hereby expressly incorporated by reference. A holoreceptor transactivation assay and a ligand binding assay which measure the antagonist/agonist like activity of the compounds of the invention, or their ability to bind to the several retinoid receptor subtypes, respectively, are described in published PCT Application No. WO WO93/11755 (particularly on pages 30-33 and 37-41) published on Jun. 24, 1993, the specification of which is also incorporated herein by reference. A detailed experimental procedure for holoreceptor transactivations has been described by Heyman et al. Cell 68, 397-406, (1992); Allegretto et al. J. Biol. Chem. 268, 26625-26633, and Mangelsdorf et al. The Retinoids: Biology, Chemistry and Medicine, pp 319-349, Raven Press Ltd., New York, which are expressly incorporated herein by reference. The results obtained in this assay are expressed in EC50 numbers, as they are also in the chimeric receptor transactivation assay. The results of the ligand binding assay are expressed in Ki numbers. (See Cheng et al. Biochemical Pharmacology Vol. 22 pp 3099-3108, expressly incorporated herein by reference.)
Efficacy in a transactivation assay is expressed as a percentage of the maximum potency attained by the compound compared to a standard which, in this case, is the compound named (2E,4E,1′S,2′S)-3-methyl-5-[2′-methyl-2′-(5,5,8,8-tetramethyl-5,6,7,8-tetrahydro-naphthalen-2-yl)-cyclopropyl]-penta-2,4-dienoic acid. This standard compound is described in U.S. Pat. No. 6,114,533.
The specification of this application for patent is organized in several sections in accordance with structural Formulas A through F each of which discloses a group of preferred compounds within the scope of the invention. Tables that disclose the activity of certain exemplary compounds of the invention in the above-described RXR receptor transactivation and binding assays are found in the corresponding sections. […] The transactivation data pertaining to the activation of RXR receptors were obtained in the holoreceptor assay.
Generally speaking, in the tables disclosing the results of transactivation and binding assays the numbers in parentheses indicate efficacy as a percentage compared to the standard compound, (2E,4E,1′S,2′S)-3-methyl-5-[2′-methyl-2′-(5,5,8,8-tetramethyl-5,6,7,8-tetrahydro-naphthalen-2-yl)cyclopropyl]-penta-2,4-dienoic acid and the other numbers indicate the measured EC50 and K; in nanomolar concentration.

RARα [4] = target: T3, RARα (Homo sapiens, UniProt P10276); test: ligand binding assay, RARα; conditions: Table 9 (Formula F); read-out: RAR α Kd
T3 sequence (P10276 1-462): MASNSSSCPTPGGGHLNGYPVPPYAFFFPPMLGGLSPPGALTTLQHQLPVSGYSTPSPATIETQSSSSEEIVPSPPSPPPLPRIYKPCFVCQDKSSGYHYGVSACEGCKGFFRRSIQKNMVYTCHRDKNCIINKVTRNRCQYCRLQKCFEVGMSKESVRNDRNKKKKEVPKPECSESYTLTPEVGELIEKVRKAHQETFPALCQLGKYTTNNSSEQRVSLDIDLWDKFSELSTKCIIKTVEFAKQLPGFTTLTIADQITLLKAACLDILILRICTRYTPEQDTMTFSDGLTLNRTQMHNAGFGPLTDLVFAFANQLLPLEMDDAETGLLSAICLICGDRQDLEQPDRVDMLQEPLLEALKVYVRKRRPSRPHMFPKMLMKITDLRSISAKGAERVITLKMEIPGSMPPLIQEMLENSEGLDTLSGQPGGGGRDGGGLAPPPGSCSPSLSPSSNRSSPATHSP
Outline: as §1

RARγ = target: T4, RARγ (Homo sapiens, UniProt P13631); test: ligand binding assay, RARγ; conditions: Table 9 (Formula F); read-out: RAR γ Kd
T4 sequence (P13631 1-454): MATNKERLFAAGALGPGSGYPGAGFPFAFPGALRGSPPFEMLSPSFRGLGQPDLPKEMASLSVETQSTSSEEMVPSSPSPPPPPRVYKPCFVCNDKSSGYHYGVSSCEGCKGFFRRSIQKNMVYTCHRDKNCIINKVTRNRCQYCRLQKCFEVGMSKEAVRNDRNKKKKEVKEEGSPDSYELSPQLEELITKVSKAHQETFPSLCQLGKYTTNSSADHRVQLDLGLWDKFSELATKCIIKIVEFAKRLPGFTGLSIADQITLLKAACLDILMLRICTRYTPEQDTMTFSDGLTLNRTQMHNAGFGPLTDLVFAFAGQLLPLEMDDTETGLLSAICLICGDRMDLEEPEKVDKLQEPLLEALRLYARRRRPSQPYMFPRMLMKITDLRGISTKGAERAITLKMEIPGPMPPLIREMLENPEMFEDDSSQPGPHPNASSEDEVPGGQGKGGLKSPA
Outline: as §1

## CCOc1c(\C(=C(F)/C=C/C(C)=C/C(=O)O)C(C)C)cc2c(c1Br)C(C)(C)CC=C2C(C)C [Compound A-171, (2E,4E,6E)-7-(4-Bromo-3-ethoxy-8-isopropyl-5,5-dimethyl-5,6-dihydro-naphthalen-2-yl)-6-fluoro-3.8-dimethyl-nona-2.4,6-trienoic acid]
RXRβ [1]
  EC50: 3 nM
  RXR Trans. efficacy (number in parentheses) β: 30%
RXRβ [2]
  Kd: 15 nM
RARα [3]
  EC50: 3 nM
  Emax: 13%
RARα [4]
  Kd: 29 nM
RARγ
  Kd: 272 nM

## CCOc1c(\C(CC)=C(F)/C=C/C(C)=C/C(=O)O)cc2c(c1Cl)C(C)(C)CC=C2C(C)C [Compound A-178, (2E,4E,6E)-7-(4-Chloro-3-ethoxy-8-isopropyl-5,5-dimethyl-5,6-dihydronaphthalen-2-yl)-6-fluoro-3-methyl-nona-2,4,6-trienoic acid]
RXRβ [1]
  EC50: 0.5 nM
  RXR Trans. efficacy (number in parentheses) β: 53%
RXRβ [2]
  Kd: 11 nM
RARα [3]
  EC50: 1 nM
  Emax: 8%
RARα [4]
  Kd: 9.9 nM
RARγ
  Kd: 449 nM
